According to ChEMBL document CHEMBL1137616, “Poorly soluble marketed drugs display solvation limited solubility” (J Med Chem, 2007):
≈ marks a conversion by molar mass, not a printed value.

Experiment: Solubility by shake flask method

| SMILES | Solubility |
| --- | --- |
| CCCSc1ccc2nc(NC(=O)OC)[nH]c2c1 [ALBENDAZOLE] | 0.983 µM (≈ 0.261 µg/mL) |
| COc1ccccc1OCCNCC(O)COc1cccc2[nH]c3ccccc3c12 (configuration not stated) [CARVEDILOL] | 0.713 µM (≈ 0.29 µg/mL) |
| CCOC(=O)C1=C(C)NC(C)=C(C(=O)OC)C1c1cccc(Cl)c1Cl (configuration not stated) [FELODIPINE] | 0.276 µM (≈ 0.106 µg/mL) |
| CCC1=C(C)CN(C(=O)NCCc2ccc(S(=O)(=O)NC(=O)N[C@H]3CC[C@H](C)CC3)cc2)C1=O [GLIMEPIRIDE] | 0.0127 µM (≈ 0.00623 µg/mL) |
| COc1ccc(Cl)cc1C(=O)NCCc1ccc(S(=O)(=O)NC(=O)NC2CCCCC2)cc1 [GLYBURIDE] | 0.0891 µM (≈ 0.044 µg/mL) |
| Cc1c(Cl)cccc1Nc1ccccc1C(=O)O [TOLFENAMIC ACID] | 0.0136 µM (≈ 0.00356 µg/mL) |

Further lines, results first:

| Solubility | SMILES |
| --- | --- |
| 0.0668 µM (≈ 0.0306 µg/mL) | COc1ccc(CCN2CCC(Nc3nc4ccccc4n3Cc3ccc(F)cc3)CC2)cc1 [ASTEMIZOLE] |
| 1.1333 µM (≈ 0.405 µg/mL) | COc1ccc2c(c1)c(CC(=O)O)c(C)n2C(=O)c1ccc(Cl)cc1 [INDOMETHACIN] |
| 0.0033 µM (≈ 0.00233 µg/mL) | CCC(C)n1ncn(-c2ccc(N3CCN(c4ccc(OCC5COC(Cn6cncn6)(c6ccc(Cl)cc6Cl)O5)cc4)CC3)cc2)c1=O (configuration not stated) [ITRACONAZOLE] |
| 0.0965 µM (≈ 0.0448 µg/mL) | Cc1c(C(=O)NN2CCCCC2)nn(-c2ccc(Cl)cc2Cl)c1-c1ccc(Cl)cc1 [RIMONABANT] |
| 0.0116 µM (≈ 0.00547 µg/mL) | CC(C)(C)c1ccc(C(O)CCCN2CCC(C(O)(c3ccccc3)c3ccccc3)CC2)cc1 (configuration not stated) [TERFENADINE] |
| < 0.0159 µM | Cc1c(C)c2c(c(C)c1O)CCC(C)(COc1ccc(CC3SC(=O)NC3=O)cc1)O2 (configuration not stated) [TROGLITAZONE] |
